From patent publication US12569494B2, “Compositions and methods to promote thymic regeneration” (Fred Hutchinson Cancer Center, priority 2018, dated 2026) come the findings set out here.

In one assay the test system is Ex-vivo ECs (exECs). Description: Bmp4 expression by qPCR in ex-vivo thymic endothelial cells (exECs). As to conditions: 50 μM Rho GTPase inhibitor, 20 h overnight, qPCR (FIG. 7A). In kind it is cell-based, mice. The method, then:
(§1) FIGS. 7A, 7B. Rho GTPase inhibition, using several small molecule inhibitors, promotes the expression of Bmp4 and the II12p40 subunit of IL-23. Ex-vivo ECs (exECs) were generated from FACS purified ECs from the thymus and transduced with lentivirus containing the adenoviral gene E4orf1, as described here Proc Natl Acad Sci USA. 2008 Dec. 9; 105(49):19288-93. The exECs were cultured in Advanced DMEM-F12 (Gibco Life Technologies 12634-028) with 20% FBS, 10 mM HEPES buffer, 1% Glutamax (Life Technologies 35050061), 1% Pen Strep, 1% Non-Essential Amino Acids (Life Technologies 11140050), 50 μg/ml Endothelial cell supplement (Alfa Aesar J64516, BT-023), 5 μM SB431542 (R&D Systems 1614), 20 ng/ml FGF (Peprotech 100-18B), 10 ng/ml VEGF (Peprotech 450-32) at 37° C., 5% O2 and 5% CO2. […] Bmp4 and II-12p40 expression were determined by qPCR (exECs, n=3-6 wells from 2 separate experiments; DCs, n=3 mice).
(§2) FIGS. 10A, 10B: In vitro treatment with a synthetic miR29c mimic reduces the expression of Bmp4 & IL-23, in ECs and DCs, respectively. exECs and DCs were generated and maintained as described in FIGS. 7A, 7B. […] Bmp4 and IL-23 expression were determined by qPCR (n=3).
For orientation: Quantitative PCR measures a nucleic acid by following its amplification.

For assay [1], the system named is Thymic dendritic cells (DCs). Description: Il-12p40 / IL-23 expression by qPCR in thymic dendritic cells (DCs). Conditions: 50 μM Rho GTPase inhibitor, 20 h overnight, qPCR (FIG. 7B). In kind it is cell-based, C57BL/6 mice. As to the method:
as §1, §2

The next assay has as its system exECs. In words: miR29 family expression by qPCR in exECs after Rac1,2,3 inhibition. In kind it is cell-based, mice. As to conditions: 50 μM inhibitor, qPCR (FIG. 11). The method, then: FIGS. 7A, 7B. Rho GTPase inhibition, using several small molecule inhibitors, promotes the expression of Bmp4 and the II12p40 subunit of IL-23. Ex-vivo ECs (exECs) were generated from FACS purified ECs from the thymus and transduced with lentivirus containing the adenoviral gene E4orf1, as described here Proc Natl Acad Sci USA. 2008 Dec. 9; 105(49):19288-93. The exECs were cultured in Advanced DMEM-F12 (Gibco Life Technologies 12634-028) with 20% FBS, 10 mM HEPES buffer, 1% Glutamax (Life Technologies 35050061), 1% Pen Strep, 1% Non-Essential Amino Acids (Life Technologies 11140050), 50 μg/ml Endothelial cell supplement (Alfa Aesar J64516, BT-023), 5 μM SB431542 (R&D Systems 1614), 20 ng/ml FGF (Peprotech 100-18B), 10 ng/ml VEGF (Peprotech 450-32) at 37° C., 5% O2 and 5% CO2. Thymic dendritic cells (DCs) were obtained from the thymus of 6 week old C57BL/6 mice, where post enzymatic digestion CD11c+ cells were isolated using magnetic beads (Miltenyi Biotech 130-108-338), and cultured in DMEM plus 10% FBS and 1% PenStrep at 37° C., 21% O2 and 5% CO2. The exECs and DCs were separately treated with 50 μM of the individual Rho GTPase inhibitors: RhoA (Millipore/Sigma, Rhosin, CAS 1173671-63-0, 555460-25MG), ROCK (TC-S 700, Tocris, 4961), Rac1,2,3 (Tocris, EHT 1864, 2161), and Cdc42 (Millipore/Sigma, CDC42 Inhibitor III, ZCL278, 500503) for 20 h overnight before being lysed and prepared for RNA extraction. Bmp4 and II-12p40 expression were determined by qPCR (exECs, n=3-6 wells from 2 separate experiments; DCs, n=3 mice).
FIG. 11. miR29c expression is reduced after Rac1 inhibition in ECs. exECs were treated with 50 μM Rac1,2,3 (Tocris, EHT 1864, 2161) inhibitor as described in FIGS. 7A, 7B. cDNA was prepared from isolated RNA using the Taqman Advanced miRNA cDNA Synthesis kit (Thermo Fisher A28007), and relative miR29c expression was assessed by qPCR (primers from Thermo Fisher A25576).

Another assay concerns ECs. In words: BMP4 expression in ECs after ATP. In kind it is cell-based. Conditions: NF-kB independent manner.

Take `Cl.Cl.O=c1cc(CN2CCOCC2)occ1OCCCCCSc1ccnc2cc(C(F)(F)F)ccc12` (racemic) [EHT 1864, 5-(5-(7-(Trifluoromethyl)quinolin-4-ylthio)pentyloxy)-2-(morpholinomethyl)-4H-pyran-4-one dihydrochloride]: the Bmp4 expression entry in the assay on Ex-vivo ECs (exECs) is “significantly upregulated”. For the same compound, in assay [1], the iI-12p40 expression result is recorded as “significantly upregulated”. Besides, the miR29c expression entry in the assay with exECs (compared with untreated) is listed as “significantly reduced”. Further, in the assay on exECs, the miR29a levels result is “not reduced” and the miR29b levels result is “not reduced”.
With `Nc1ncnc2c1ncn2[C@@H]1O[C@H](COP(=O)(O)OP(=O)(O)OP(=O)(O)O)[C@@H](O)[C@H]1O` [ATP], the BMP4 expression result in the assay with ECs is recorded as “induces”.
For `Cl.N[C@H](Cc1c[nH]c2ccccc12)C(=O)N/N=C/c1ccc2nccnc2c1` [Rhosin, D-Tryptophan (2E)-2-(6-quinoxalinylmethylene)hydrazide hydrochloride], in the assay on Ex-vivo ECs (exECs), the Bmp4 expression entry is “significantly upregulated”. Further, the iI-12p40 expression entry in assay [1] is given as “significantly upregulated”.
